Read-outs that look alike come from different tables or passages of the source.
Tests used:
[1] = test system: Myzus persicae; assay: Myzus test (MYZUPE spray treatment); format: in vivo; settings: Chinese cabbage leaf discs, after 6 days
Experimental: Myzus Test (MYZUPE Spray Treatment) Solvent: 78 parts by weight of acetone • • 1.5 parts by weight of dimethylformamide Emulsifier: 0.5 part by weight of alkylaryl polyglycol ether To produce an appropriate active ingredient formulation, 1 part by weight of active ingredient is mixed with the stated amounts of solvent and emulsifier, and the concentrate is diluted with emulsifier-containing water to the desired concentration. Leaf discs of Chinese cabbage (Brassica pekinensis) infested by all stages of the green peach aphid (Myzus persicae) are sprayed with an active ingredient formulation of the desired concentration. After 6 days, the efficacy in % is determined. 100% means that all of the aphids have been killed; 0% means that none of the aphids have been killed.

[2] = test system: Phaedon cochleariae; assay: Phaedon test (PHAECO spray treatment); format: in vivo; settings: Chinese cabbage leaf discs, after 7 days
Procedure, shortened: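 Chinese cabbage leaf discs were sprayed with compound in acetone/DMF with emulsifier, diluted in water to the test concentration. After drying, discs were infested with mustard beetle larvae. Efficacy in % was scored after 7 days, where 100% means all larvae were killed and 0% means none.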

[3] = test system: Spodoptera frugiperda; assay: Spodoptera frugiperda test (SPODFR spray treatment); format: in vivo; settings: maize leaf discs, after 7 days
Procedure, shortened: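 Maize leaf discs sprayed with active ingredient formulated in acetone/dimethylformamide with emulsifier, diluted in emulsifier-containing water to the desired concentration. After drying, discs were populated with armyworm caterpillars. Efficacy (%) scored after 7 days: 100% all caterpillars killed, 0% none killed.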

[4] = test system: Tetranychus urticae; assay: Tetranychus test, OP-resistant (TETRUR spray treatment); format: in vivo; settings: bean leaf discs, after 6 days
Procedure, shortened: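 Bean leaf discs infested with all stages of OP-resistant T. urticae sprayed with compound formulated in acetone/DMF plus alkylaryl polyglycol ether emulsifier, diluted in water. Efficacy (% mites killed) scored after 6 days.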

[5] = logP (HPLC-MS); format: physicochemical
[6] = test system: Boophilus microplus; assay: Boophilus microplus test (BOOPMI injection); format: in vivo; settings: application rate 20 μg/animal; injected into the abdomen; after 7 days
Procedure, shortened: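 Active ingredient dissolved in DMSO (10 mg in 0.5 ml, then diluted to the test concentration) and injected into the abdomen of Boophilus microplus ticks. Ticks kept in dishes in a climate-controlled room for 7 days. Efficacy (%) is based on laying of fertile eggs; 100% means no tick laid fertile eggs.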

[7] = test system: Ctenocephalides felis; assay: Ctenocephalides felis oral (CTECFE); format: in vivo; settings: application rate 100 ppm in citrated cattle blood; after 2 days
Procedure, shortened: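 About 20 unfed adult fleas fed through a Parafilm membrane on citrated cattle blood containing the compound at the desired concentration, diluted from a DMSO concentrate. Kill in % was scored after 2 days, where 100% means all fleas dead and 0% none.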

[8] = test system: Lucilia cuprina larvae; assay: Lucilia cuprina test (LUCICU); format: in vivo; settings: application rate 100 ppm; treated horse meat; after 2 days
Procedure, shortened: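 About 20 Lucilia cuprina larvae placed on horse meat treated with compound formulation (DMSO concentrate diluted in water). Kill (%) scored after 2 days, 100% meaning all larvae dead.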

[9] = test system: adult Musca domestica; assay: Musca domestica test (MUSCDO); format: in vivo; settings: application rate 100 ppm; treated sponge; after 2 days
Experimental: Musca domestica Test (MUSCDO) Solvent: dimethyl sulphoxide To prepare an appropriate active ingredient formulation, 10 mg of active ingredient are mixed with 0.5 ml of dimethyl sulphoxide and the concentrate is diluted with water to the desired concentration. Vessels containing a sponge treated with the active ingredient formulation of the desired concentration are populated with adult Musca domestica. After 2 days, the kill in % is determined 100% means that all of the flies have been killed; 0% means that none of the flies have been killed.

[10] = HPLC, reversed-phase column (C18), acidic range pH 2.7, acetonitrile (0.1% formic acid)/water gradient, 43° C., calibration with unbranched alkan-2-ones
[11] = HPLC, reversed-phase column (C18), 43° C., acidic range pH 2.7, EEC directive 79/831 Annex V.A8, two values = both regioisomers (G = N)

Row | SMILES | log p [5, 10] | log p [5, 11] | chromatographic logP ([5]; HPLC, reversed-phase column (C18), 43° C., acidic range pH 2.7, EEC directive 79/831 Annex V.A8, two values = both regioisomers (G = N), read-out: log p) | chromatographic logP ([5]; HPLC-MS) | efficacy in % ([1]; application rate 500 g/ha) [%] | efficacy in % ([2]; application rate 500 g/ha) [%] | efficacy in % ([3]; application rate 500 g/ha) [%] | efficacy in % ([4]; application rate 500 g/ha) [%] | efficacy in % ([1]; application rate 100 g/ha) [%] | efficacy in % ([2]; application rate 100 g/ha) [%] | efficacy in % ([3]; application rate 100 g/ha) [%] | efficacy in % ([4]; application rate 100 g/ha) [%] | efficacy (laying of fertile eggs) [6] [%] | efficacy (kill in %) [7] [%] | efficacy (kill in %) [8] [%] | efficacy (kill in %) [9] [%] | pest or weed control at 500 g/ha ([2]; Phaedon cochleariae, foliar, 168 h, application rate 500 g/ha, read-out: efficacy in %) [%]
1 | C#CCn1c(C(=O)NC(c2cccc(Cl)c2)C(F)(F)F)cc2cc(C(=O)NC3CC3)c(Cl)cc21 (centres unmarked) [Compound 5] | 3.45 | – | – | – | 90 | 100 | 100 | 100 | – | – | – | – | – | – | – | – | –
2 | C#CCn1c(C(=O)NC(c2ccc(F)c(Cl)c2)C(F)(F)F)nc2cc(C(=O)NC3CC3)c(Cl)cc21 (centres unmarked) [Compound 101] | 3.50 | – | – | – | – | – | – | – | 80 | 100 | 100 | 80 | – | – | – | – | –
3 | CCn1c(C(=O)NC(c2ccc(F)c(Br)c2)C(F)(F)F)cc2cc(C(=O)NC3CC3)c(C)cc21 (centres unmarked) [Compound 190] | 3.70 | – | – | – | – | – | – | – | – | 100 | 100 | 100 | 100 | 100 | 100 | 100 | –
4 | CCn1c(C(=O)NC(c2cc(Cl)c(Cl)c(Cl)c2)C(F)(F)F)cc2cc(C(=O)NC3(C#N)CC3)c(Cl)cc21 (centres unmarked) [Compound 275] | 4.43 | – | – | – | – | – | – | – | – | 100 | 100 | 100 | 100 | 100 | 100 | 100 | –
5 | C=CCn1c(C(=O)NC(c2ccc(F)c(C(F)(F)F)c2)C(F)(F)F)nc2cc(C(=O)NC3CC3)c(Cl)cc21 (centres unmarked) [Compound 281] | – | 3.79 | – | – | 90 | 100 | 100 | 100 | 100 | – | – | – | – | – | – | – | –
6 | CCn1c(C(=O)NC(c2cc(Cl)c(Cl)c(Cl)c2)C(F)(F)F)cc2cc(C(=O)NC3(C#N)CC3)c(C)cc21 (centres unmarked) [Compound 289] | – | 4.43 | – | – | 100 | – | – | – | – | 100 | 100 | 100 | – | – | – | – | –
7 | N#CCn1c(C(=O)NC(c2ccc(F)c(C(F)(F)F)c2)C(F)(F)F)nc2cc(C(=O)NC3CC3)c(Cl)cc21 (centres unmarked) [Compound 301] | – | – | – | – | 90 | 100 | 100 | 90 | – | – | – | – | – | – | – | – | –
8 | O=C(NC1CC1)c1cc2nc(C(=O)NC(c3cccc(C(F)(F)F)c3)C(F)(F)F)n(C3CC3)c2cc1Cl (centres unmarked) [Compound 312, 6-chloro-N^5,1-dicyclopropyl-N^2-{2,2,2-trifluoro-1-[3-(trifluoromethyl)phenyl]ethyl}-1H-benzimidazole-2,5-dicarboxamide] | – | – | 3.48 | 3.48 | 100 | – | 100 | – | 100 | – | – | – | – | – | – | – | 100

Further lines, with some results ahead:

Row | log p [5, 10] | log p [5, 11] | chromatographic logP ([5]; HPLC, reversed-phase column (C18), 43° C., acidic range pH 2.7, EEC directive 79/831 Annex V.A8, two values = both regioisomers (G = N), read-out: log p) | chromatographic logP ([5]; HPLC-MS) | SMILES | efficacy in % ([1]; application rate 500 g/ha) [%] | efficacy in % ([2]; application rate 500 g/ha) [%] | efficacy in % ([3]; application rate 500 g/ha) [%] | efficacy in % ([4]; application rate 500 g/ha) [%] | efficacy in % ([1]; application rate 100 g/ha) [%] | efficacy in % ([2]; application rate 100 g/ha) [%] | efficacy in % ([3]; application rate 100 g/ha) [%] | efficacy in % ([4]; application rate 100 g/ha) [%] | efficacy (laying of fertile eggs) [6] [%] | efficacy (kill in %) [7] [%] | efficacy (kill in %) [8] [%] | efficacy (kill in %) [9] [%] | pest or weed control at 500 g/ha ([2]; Phaedon cochleariae, foliar, 168 h, application rate 500 g/ha, read-out: efficacy in %) [%]
9 | 3.75 | – | – | – | CCn1c(C(=O)NC(c2cccc(C(F)(F)F)c2)C(F)(F)F)cc2cc(C(=O)NC3(C#N)CC3)c(C)cc21 (centres unmarked) [Compound 183] | – | – | – | – | 90 | 100 | 100 | 100 | – | – | – | – | –
10 | 3.66 | – | – | – | CCn1c(C(=O)NC(c2ccc(F)c(Cl)c2)C(F)(F)F)cc2cc(C(=O)NC3(C#N)CC3)c(C)cc21 (centres unmarked) [Compound 193] | – | – | – | – | 90 | 100 | 100 | 100 | – | – | – | – | –
11 | 4.09 | – | – | – | CCn1c(C(=O)NC(c2cc(Cl)cc(Cl)c2)C(F)(F)F)cc2cc(C(=O)NC3(C#N)CC3)c(C)cc21 (centres unmarked) [Compound 195] | – | – | – | – | – | 100 | 100 | 100 | 100 | 100 | 100 | 100 | –
12 | 3.48 | – | – | – | C#CCn1c(C(=O)NC(c2cccc(C(F)(F)F)c2)C(F)(F)F)cc2cc(C(=O)NC3(C#N)CC3)c(C)cc21 (centres unmarked) [Compound 209] | – | – | – | – | 90 | 100 | 100 | 100 | – | – | – | – | –
13 | – | 3.74 | – | – | C=CCn1c(C(=O)NC(c2cccc(C(F)(F)F)c2)C(F)(F)F)cc2cc(C(=O)NC3(C#N)CC3)c(Cl)cc21 (centres unmarked) [Compound 283] | – | – | – | – | – | 100 | 100 | 100 | 100 | 100 | 100 | 90 | –
14 | – | 3.87 | – | – | CC#CCn1c(C(=O)NC(c2cccc(C(F)(F)F)c2)C(F)(F)F)cc2cc(C(=O)NC3(C#N)CC3)c(Cl)cc21 (centres unmarked) [Compound 285] | – | – | – | – | – | 100 | 100 | 100 | 100 | 100 | 100 | 90 | –
15 | – | 4.03 | – | – | CCCn1c(C(=O)NC(c2cccc(C(F)(F)F)c2)C(F)(F)F)cc2cc(C(=O)NC3(C#N)CC3)c(Cl)cc21 (centres unmarked) [Compound 288] | – | – | – | – | – | 100 | 100 | 100 | 100 | 100 | 100 | 100 | –
16 | – | 4.13 | – | – | CCn1c(C(=O)NC(c2cc(Cl)c(F)c(Cl)c2)C(F)(F)F)cc2cc(C(=O)NC3(C#N)CC3)c(C)cc21 (centres unmarked) [Compound 290] | 100 | – | – | – | – | 100 | 100 | 100 | – | – | – | – | –
17 | – | 4.07 | – | – | CCn1c(C(=O)NC(c2cc(Cl)cc(Cl)c2)C(F)(F)F)cc2cc(C(=O)NC3(C#N)CC3)c(C)cc21 (centres unmarked) [Compound 291] | – | – | – | – | 90 | 100 | 100 | 100 | – | – | – | – | –
